Data as given in patent US11865086B2, “Cinnamaldehyde derivative compounds and methods of use for cinnamaldehyde derivative compounds nicotine cessation” (Pacific University, priority 2018, dated 2024).
Read-outs that look alike come from different tables or passages of the source.

How the values were obtained:
[1] = set-up: species or system humans; details: human
Description: This has also observed in rats, for which full pharmacokinetic studies are available. Converting the dose in rats to humanized equivalent doses can estimate the doses necessary to achieve low μM concentrations of CA in humans. […] In rats a single 250 mg/kg oral dose generated a t-CA blood concentration of 7.6 μM. With the BSA method, t-CA doses of 32 mg and 320 mg per day are estimated to achieve concentrations of 0.1 and 1 μM in humans.

[2] = biological target: T1, CYP2A6 (Homo sapiens, UniProt P11509); details: recombinant enzyme
T1 sequence (P11509 1-494): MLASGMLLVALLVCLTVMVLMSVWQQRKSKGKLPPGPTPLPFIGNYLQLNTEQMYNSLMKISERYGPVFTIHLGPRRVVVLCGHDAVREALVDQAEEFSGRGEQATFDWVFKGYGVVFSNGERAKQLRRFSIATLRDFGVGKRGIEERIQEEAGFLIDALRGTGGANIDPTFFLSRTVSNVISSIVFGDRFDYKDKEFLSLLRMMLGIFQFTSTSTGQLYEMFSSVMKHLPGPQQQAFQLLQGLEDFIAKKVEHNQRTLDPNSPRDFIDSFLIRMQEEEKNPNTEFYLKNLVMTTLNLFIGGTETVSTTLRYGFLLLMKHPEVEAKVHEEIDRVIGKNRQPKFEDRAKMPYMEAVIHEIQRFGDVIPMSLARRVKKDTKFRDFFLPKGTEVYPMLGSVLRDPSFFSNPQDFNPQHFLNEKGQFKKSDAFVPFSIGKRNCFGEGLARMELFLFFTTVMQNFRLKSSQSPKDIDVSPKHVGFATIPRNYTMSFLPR
Description: (§1) Since this type of inhibition also requires that the inhibitor is initially metabolized by the target enzyme, MBIs may be identified by evaluating the inhibition in the presence and absence of cofactors that are required for activity, such as NADPH for CYPs.

[3] = rat, in vivo, po, 250 mg/kg; cited from earlier work
[4] = in vivo; cited from earlier work
[5] = biological target: T1, CYP2A6; test: biochemical
Description: A 96-well plate assay and fluorescence spectroscopy may be used to quantify the product, 7-hydroxycoumarin.
Data was fit using GraphPad Prism.

[6] = biological target: T2, CYP2A6 (Homo sapiens, UniProt P11509, K28S/Q25K/Q26K/R27T/W24A); test: biochemical
T2 sequence (P11509 with tags, fused parts or gaps limits assumed): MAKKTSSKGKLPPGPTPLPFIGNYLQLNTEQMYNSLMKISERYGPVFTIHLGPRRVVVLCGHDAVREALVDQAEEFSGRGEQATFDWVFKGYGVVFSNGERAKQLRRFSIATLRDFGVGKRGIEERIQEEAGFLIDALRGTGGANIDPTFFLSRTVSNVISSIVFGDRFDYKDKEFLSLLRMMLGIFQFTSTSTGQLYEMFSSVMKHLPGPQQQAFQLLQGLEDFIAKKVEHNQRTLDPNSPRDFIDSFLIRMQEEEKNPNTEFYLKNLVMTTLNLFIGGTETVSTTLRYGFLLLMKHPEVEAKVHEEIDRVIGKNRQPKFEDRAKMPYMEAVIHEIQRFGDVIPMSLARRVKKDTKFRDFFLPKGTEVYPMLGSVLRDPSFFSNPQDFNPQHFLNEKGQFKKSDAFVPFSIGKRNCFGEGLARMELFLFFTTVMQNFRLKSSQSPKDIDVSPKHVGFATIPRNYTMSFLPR
Description: Spectral binding studies were conducted using purified heterologously expressed CYP2A6 in Escherichia coli. […] Absorbance changes (A386-A418) may be plotted against added ligand concentrations in order to determine dissociation constants.
In more detail, the CYP2A6 enzyme may be heterologously expressed in Escherichia coli and purified. The expression vector, pKK2A6dH may be used to express the enzyme. The vector contains a cDNA sequence that codes for human CYP2A6 with a deletion of the N-terminal transmembrane sequence, an alteration of several residues at the modified N-terminus to increase expression, and four histidine residues added at the C-terminus to aid in purification. […] Expression from the vector may be induced with the addition of IPTG to bacterial cultures. δ-Aminolevulinic acid is added during expression to supplement heme biosynthesis. The enzyme may be purified following previously reported protocols. Briefly, following cell disruption, the solubilized enzyme may be purified using Ni^2+-affinity chromatography and cation-exchange (CM sepharose) chromatography, which may lead to protein of high purity and P450 content.

[7] = biological target: T1, CYP2A6; test: biochemical; remark: listed apart in the source
Description: as §1

Q: With `O=C/C=C/c1ccccc1` [t-CA, trans-cinnamaldehyde] as the compound, how does the “estimated t-CA dose” value ([1]; 0.1 μM) read?
A: 32 mg per day

Q: What about the “estimated t-CA dose” value ([1]; 1 μM) of the same compound?
A: 320 mg per day

Q: And the “time-dependent inhibition of CYP2A6, result in words” value [2]?
A: increases with time

Q: And the t-CA blood concentration [3]?
A: 7.6 µM

Q: And the “absorption upon oral administration” value [4]?
A: completely absorbed

Q: And the IC50 [5]?
A: 6.9 ± 1.2 µM

Q: What about the Kd [6] of the same compound?
A: 14.9 µM

Q: And the Ki [7]?
A: 27.2 µM
